Experimental data taken from patent publication US9688684B2, “Substituted tetrazolo[1,5-a]pyrazines as ROR-gamma inhibitors” (Merck Patent GmbH, priority 2013, dated 2017).

target: human RORγ ligand binding domain (GST-hRORγ-LBD) (Homo sapiens (Human), UniProt P51449); experiment: TR-FRET assay (biochemical cofactor interaction assay, GST-hRORγ-LBD / TRAP220 peptide)
Excerpt: RORγ is an orphan member of the nuclear receptor (NR) family displaying constitutive activity. The activity of nuclear receptors can be modulated by ligand-induced cofactor protein interactions. For example, agonist binding leads to recruitment of coactivator protein, and antagonist binding either blocks coactivator interaction or facilitates the recruitment of corepressors. […] The conformational change induced by ligand binding influences interactions with LXXLL motif peptides.
RORγ (t) is a thymus-specific isoform of RORγ which is widely expressed. It shares the same ligand binding domain (LBD) sequence with RORγ. Thus, a screen using the LBD will yield antagonists targeting both RORγ and RORγt.
In order to identify compounds which block activity of the human nuclear receptor Retinoid-related Orphan Receptor gamma (RORγ) a biochemical cofactor interaction assay based on the TR-FRET principle is performed. […] The ligand-binding domain (LBD) of RORγ is expressed as fusion protein with GST in […] cells using the vector pDEST15. Cells are lysed by lysozyme-treatment and sonication, and the fusion proteins purified over glutathione sepharose (Pharmacia) according to the manufacturers instructions. The strong constitutive interaction is disrupted upon binding of functional antagonists. The strength of the interaction is monitored by TR-FRET between streptavidine APC interacting with the biotinylated peptide and Europium-labelled Anti-GST.

Chain of human RORγ ligand binding domain (GST-hRORγ-LBD) (P51449 269-508): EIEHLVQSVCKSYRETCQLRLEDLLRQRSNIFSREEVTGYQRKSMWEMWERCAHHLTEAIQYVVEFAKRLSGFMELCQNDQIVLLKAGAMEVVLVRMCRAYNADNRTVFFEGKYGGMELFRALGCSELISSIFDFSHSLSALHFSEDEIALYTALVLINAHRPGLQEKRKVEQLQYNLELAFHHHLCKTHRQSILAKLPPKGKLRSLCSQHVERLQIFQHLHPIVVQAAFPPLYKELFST

Molecule	IC50 [µM]
Brc1cccc(C2c3nnnn3CCN2CC2CCCCC2)c1 (stereo not shown) [Compound 9, 8-(3-Bromo-phenyl)-7-cyclohexylmethyl-5,6,7,8-tetrahydro-tetrazolo[1,5-a]pyrazine]	9.9 to 40
CC(C)c1nn(-c2ccccc2)cc1CN1CCn2nnnc2C1c1ccc2c(c1)OCO2 (stereo not shown) [Compound 29, 8-Benzo[1,3]dioxol-5-yl-7-(3-isopropyl-1-phenyl-1H-pyrazol-4-ylmethyl)-5,6,7,8-tetrahydro-tetrazolo[1,5-a]pyrazine]	9.9 to 40
Fc1ccc(CN2CCn3nnnc3C2c2cccc(F)c2)cc1 (single isomer, unassigned) [Compound 91-a, 7-(4-Fluoro-benzyl)-8-(3-fluoro-phenyl)-5,6,7,8-tetrahydro-tetrazolo[1,5-a]pyrazine]	9.9 to 40
Fc1ccc(F)c(CN2CCn3nnnc3C2c2cc(F)ccc2F)c1 (stereo not shown) [Compound 32, 7-(2,5-Difluoro-benzyl)-8-(2,5-difluoro-phenyl)-5,6,7,8-tetrahydro-tetrazolo[1,5-a]pyrazine]	9.9 to 40
Cc1cccc(C2c3nnnn3CCN2Cc2cn(-c3ccccc3)nc2C(C)C)c1 (stereo not shown) [Compound 27, 7-(3-Isopropyl-1-phenyl-1H-pyrazol-4-ylmethyl)-8-m-tolyl-5,6,7,8-tetrahydro-tetrazolo[1,5-a]pyrazine]	9.9 to 40
Cc1cccc(CN2CCn3nnnc3C2c2cn(-c3ccccc3)nc2C(C)C)c1 (stereo not shown) [Compound 57, 8-(3-Isopropyl-1-phenyl-1H-pyrazol-4-yl)-7-(3-methyl-benzyl)-5,6,7,8-tetrahydro-tetrazolo[1,5-a]pyrazine]	9.9 to 40
CN(C)c1ccc(CN2CCn3nnnc3C2C2CCCCC2)cc1 (stereo not shown) [Compound 66, [4-(8-Cyclohexyl-5,6-dihydro-8H-tetrazolo[1,5-a]pyrazin-7-ylmethyl)-phenyl]-dimethyl-amine]	9.9 to 40
Cc1cccc(CN2CCn3nnnc3C2c2ccccn2)c1 (stereo not shown) [Compound 86, 7-(3-Methyl-benzyl)-8-pyridin-2-yl-5,6,7,8-tetrahydro-tetrazolo[1,5-a]pyrazine]	9.9 to 40
C1CCC(CN2CCn3nnnc3C2C2CCCCC2)CC1 (stereo not shown) [Compound 69, 8-Cyclohexyl-7-cyclohexylmethyl-5,6,7,8-tetrahydro-tetrazolo[1,5-a]pyrazine]	9.9 to 40
Cc1cccc(CN2CCn3nnnc3C2c2ccc(F)cc2)c1 (single isomer, unassigned) [Compound 93-b, 8-(4-Fluoro-phenyl)-7-(3-methyl-benzyl)-5,6,7,8-tetrahydro-tetrazolo[1,5-a]pyrazine]	9.9 to 40
Fc1ccc(F)c(C2c3nnnn3CCN2Cc2cccc(F)c2F)c1 (stereo not shown) [Compound 35, 7-(2,3-Difluoro-benzyl)-8-(2,5-difluoro-phenyl)-5,6,7,8-tetrahydro-tetrazolo[1,5-a]pyrazine]	9.9 to 40
COc1ccc(OC)c(CN2CCn3nnnc3C2c2ccc(OC(C)C)cc2)c1 (stereo not shown) [Compound 1, 7-(2,5-Dimethoxy-benzyl)-8-(4-isopropoxy-phenyl)-5,6,7,8-tetrahydro-tetrazolo[1,5-a]pyrazine]	9.9 to 40
CCOc1ccc(C2c3nnnn3CCN2CC2CCCCC2)cc1 (stereo not shown) [Compound 44, 7-Cyclohexylmethyl-8-(4-ethoxy-phenyl)-5,6,7,8-tetrahydro-tetrazolo[1,5-a]pyrazine]	9.9 to 40
c1csc(CN2CCn3nnnc3C2c2cccs2)c1 (stereo not shown) [Compound 47, 8-Thiophen-2-yl-7-thiophen-2-ylmethyl-5,6,7,8-tetrahydro-tetrazolo[1,5-a]pyrazine]	9.9 to 40
CC(C)c1nn(-c2ccccc2)cc1CN1CCn2nnnc2C1c1ccc(F)cc1 (stereo not shown) [Compound 11, 8-(4-Fluoro-phenyl)-7-(3-isopropyl-1-phenyl-1H-pyrazol-4-ylmethyl)-5,6,7,8-tetrahydro-tetrazolo[1,5-a]pyrazine]	9.9 to 40
CC(C)Oc1ccc(CN2CCn3nnnc3C2C2CCCCC2)cc1 (stereo not shown) [Compound 64, 8-Cyclohexyl-7-(4-isopropoxy-benzyl)-5,6,7,8-tetrahydro-tetrazolo[1,5-a]pyrazine]	9.9 to 40
CN(C)c1ccc(C2c3nnnn3CCN2Cc2cccc(F)c2F)cc1 (stereo not shown) [Compound 20, {4-[7-(2,3-Difluoro-benzyl)-5,6,7,8-tetrahydro-tetrazolo[1,5-a]pyrazin-8-yl]-phenyl}-dimethyl-amine]	9.9 to 40
O=C(c1cccc(Br)c1)N1CCn2nnnc2C1c1cccc(F)c1 (stereo not shown) [Compound 82, (3-Bromo-phenyl)-[8-(3-fluoro-phenyl)-5,6-dihydro-8H-tetrazolo[1,5-a]pyrazin-7-yl]-methanone]	9.9 to 40
Fc1cccc(CN2CCn3nnnc3C2c2cccc(F)c2F)c1F (stereo not shown) [Compound 79, 7-(2,3-Difluoro-benzyl)-8-(2,3-difluoro-phenyl)-5,6,7,8-tetrahydro-tetrazolo[1,5-a]pyrazine]	9.9 to 40

Molecule	IC50 [µM]
CCOc1ccc(C2c3nnnn3CCN2Cc2cccc(F)c2F)cc1 (stereo not shown) [Compound 45, 7-(2,3-Difluoro-benzyl)-8-(4-ethoxy-phenyl)-5,6,7,8-tetrahydro-tetrazolo[1,5-a]pyrazine]	9.9 to 40
COc1ccc(OC)c(C2c3nnnn3CCN2Cc2cn(-c3ccccc3)nc2C(C)C)c1 (stereo not shown) [Compound 13, 8-(2,5-Dimethoxy-phenyl)-7-(3-isopropyl-1-phenyl-1H-pyrazol-4-ylmethyl)-5,6,7,8-tetrahydro-tetrazolo[1,5-a]pyrazine]	9.9 to 40
CC(C)c1nn(-c2ccccc2)cc1CN1CCn2nnnc2C1c1cn(-c2ccccc2)nc1C(C)C (stereo not shown) [Compound 62, 8-(3-Isopropyl-1-phenyl-1H-pyrazol-4-yl)-7-(3-isopropyl-1-phenyl-1H-pyrazol-4-ylmethyl)-5,6,7,8-tetrahydro-tetrazolo[1,5-a]pyrazine]	9.9 to 40
Cc1nn(C)c(C)c1CN1CCn2nnnc2C1c1cn(-c2ccccc2)nc1C(C)C (stereo not shown) [Compound 157, 8-(3-Isopropyl-1-phenyl-1H-pyrazol-4-yl)-7-(1,3,5-trimethyl-1H-pyrazol-4-ylmethyl)-5,6,7,8-tetrahydro-tetrazolo[1,5-a]pyrazine]	9.9 to 40
COc1ccc(OC)c(C2c3nnnn3CCN2Cc2cccc(F)c2F)c1 (stereo not shown) [Compound 151, 7-(2,3-Difluoro-benzyl)-8-(2,5-dimethoxy-phenyl)-5,6,7,8-tetrahydro-tetrazolo[1,5-a]pyrazine]	9.9 to 40
CCOc1ccc(C2c3nnnn3CCN2Cc2cn(-c3ccccc3)nc2C(C)C)cc1 (stereo not shown) [Compound 43, 8-(4-Ethoxy-phenyl)-7-(3-isopropyl-1-phenyl-1H-pyrazol-4-ylmethyl)-5,6,7,8-tetrahydro-tetrazolo[1,5-a]pyrazine]	9.9 to 40
CC(C)c1nn(-c2ccccc2)cc1C1c2nnnn2CCN1Cc1ccn[nH]1 (stereo not shown) [Compound 153, 8-(3-Isopropyl-1-phenyl-1H-pyrazol-4-yl)-7-(2H-pyrazol-3-ylmethyl)-5,6,7,8-tetrahydro-tetrazolo[1,5-a]pyrazine]	9.9 to 40
CCn1cc(CN2CCn3nnnc3C2c2cn(-c3ccccc3)nc2C(C)C)cn1 (stereo not shown) [Compound 155, 7-(1-Ethyl-1H-pyrazol-4-ylmethyl)-8-(3-isopropyl-1-phenyl-1H-pyrazol-4-yl)-5,6,7,8-tetrahydro-tetrazolo[1,5-a]pyrazine]	9.9 to 40
CCOc1ccc(CN2CCn3nnnc3C2C2CCCCC2)cc1 (stereo not shown) [Compound 67, 8-Cyclohexyl-7-(4-ethoxy-benzyl)-5,6,7,8-tetrahydro-tetrazolo[1,5-a]pyrazine]	9.9 to 40
CN(C)c1ccc(C2c3nnnn3CCN2Cc2cc(F)ccc2F)cc1 (stereo not shown) [Compound 16, {4-[7-(2,5-Difluoro-benzyl)-5,6,7,8-tetrahydro-tetrazolo[1,5-a]pyrazin-8-yl]-phenyl}-dimethyl-amine]	9.9 to 40
Fc1ccc(F)c(CN2CCn3nnnc3C2c2cccc(F)c2F)c1 (stereo not shown) [Compound 74, 7-(2,5-Difluoro-benzyl)-8-(2,3-difluoro-phenyl)-5,6,7,8-tetrahydro-tetrazolo[1,5-a]pyrazine]	9.9 to 40
COc1ccc(CN2CCn3nnnc3C2c2ccccc2F)cc1 (stereo not shown) [Compound 22, 8-(2-Fluoro-phenyl)-7-(4-methoxy-benzyl)-5,6,7,8-tetrahydro-tetrazolo[1,5-a]pyrazine]	9.9 to 40
CC(C)Oc1ccc(C2c3nnnn3CCN2CC2CCCCC2)cc1 (stereo not shown) [Compound 3, 7-Cyclohexylmethyl-8-(4-isopropoxy-phenyl)-5,6,7,8-tetra hydro-tetrazolo[1,5-a]pyrazine]	9.9 to 40
7-Benzyl-8-(4-ethyl-phenyl-1H-pyrazol-4-yl)-5,6,7,8-tetrahydro-tetrazolo[1,5-a]pyrazine [Compound 152]	9.9 to 40
Fc1ccc(C2c3nnnn3CCN2Cc2cccc(Br)c2)cc1 (single isomer, unassigned) [Compound 96-b, 7-(3-Bromo-benzyl)-8-(4-fluoro-phenyl)-5,6,7,8-tetrahydro-tetrazolo[1,5-a]pyrazine]	9.9 to 40
Brc1cccc(CN2CCn3nnnc3C2c2cccc(Br)c2)c1 (stereo not shown) [Compound 6, 7-(3-Bromo-benzyl)-8-(3-bromo-phenyl)-5,6,7,8-tetrahydro-tetrazolo[1,5-a]pyrazine]	9.9 to 40
CN(C)c1ccc(C2c3nnnn3CCN2CC2CCCCC2)cc1 (stereo not shown) [Compound 19, [4-(7-Cyclohexylmethyl-5,6,7,8-tetrahydro-tetrazolo[1,5-a]pyrazin-8-yl)-phenyl]-dimethyl-amine]	9.9 to 40
Cc1cccc(CN2CCn3nnnc3C2c2ccncc2)c1 (stereo not shown) [Compound 87, 7-(3-Methyl-benzyl)-8-pyridin-4-yl-5,6,7,8-tetrahydro-tetrazolo[1,5-a]pyrazine]	9.9 to 40
